In patent EP4732841A1, “FOAM SCLEROSANT COMPOSITION, AND PREPARATION METHOD THEREFOR AND USE THEREOF” (Jenkem Technology Co., Ltd. (Beijing), priority 2023, dated 2025):

Experiments:
rabbit marginal ear vein = assay: Venous sclerosing effect in the rabbit marginal ear vein model; assay type: in vivo; conditions: maximum volume 0.25 mL, calculated on number of rabbit ears
Description: The rabbit marginal ear vein was used as an experimental model to compare the effects of adding different concentrations of sodium hyaluronate on the venous sclerosing effect of polidocanol. The specific method was as follows: (1) Domestic rabbits were anesthetized with xylazine (2-5 mg/kg, intramuscular injection). Subsequently, the hair on the ears was shaved, and the area was disinfected using a 0.5% chlorhexidine alcohol solution. (2) The Tessari method was used to foam the polidocanol with the addition of sodium hyaluronate, i.e., two 10 mL syringes were connected via a three-way tube and rapidly pushed and pulled back and forth at a certain gas-to-liquid ratio until foam was formed. (3) A disposable syringe was used to puncture the marginal vein, and the sclerosant was injected slowly, with a maximum volume of 0.25 mL. […]
In this example, 14 days after the injection of different types of polidocanol into some rabbit marginal ear veins, some blood vessels were occluded. […] All rabbit ear blood vessels were scored, with effective ones recorded as 1 and ineffective ones recorded as 0.
The calculation rule for the effective rate was as follows: effective rate = score of rabbit ears/total number of rabbit ears × 100% (calculated based on the number of rabbit ears).
All rabbit ear blood vessels were scored, with effective ones recorded as 1 and ineffective ones recorded as 0. […]

[1] = Foam stability of polidocanol with single molecular weight (Tessari method); assay type: physicochemical; conditions: for Foam coalescence time / Foam drainage time: 1% solution in 4% solution of ethanol in PBS, Tessari method, gas-to-liquid ratio 3:1; for foam formed after thorough mixing with air: 1% solutions mixed with air at a volume ratio of 1:3
Description: Samples of polidocanol with a single molecular weight (DD-PEG8-OH, DD-PEG9-OH, and DD-PEG10-OH prepared in Example 1) and a control (polidocanol in a mixture state containing different molecular weights, purchased from Siegfried Hameln GmbH, Germany, batch number OK13103) were separately weighed and prepared into 1% solutions using a 4% solution of ethanol in PBS. The polidocanol was foamed using the Tessari method, i.e., two 2.5 mL syringes were connected via a three-way tube and rapidly pushed and pulled back and forth at a gas-to-liquid ratio of 3:1 until foam formed. All foam was collected into one syringe, the volume was brought to 2 mL, and the foam state was observed while standing. The following parameters were recorded: foam drainage time, foam halflife time, and foam coalescence time.

| Compound | D14 effective rate (%) (rabbit marginal ear vein; venous sclerosis 14 days after injection of foam into rabbit marginal ear veins) | D21 effective rate (%) (rabbit marginal ear vein; venous sclerosis 21 days after injection of foam into rabbit marginal ear veins) | Foam coalescence time [1] [min] | Foam drainage time [1] [s] | Foam coalescence time ([1]; listed as P10 (1%)) [m] | foam formed after thorough mixing with air [1] | Foam coalescence time ([1]; listed as P8 (1%)) [m] |
| --- | --- | --- | --- | --- | --- | --- | --- |
| CCCCCCCCCCCCOCCOCCOCCOCCOCCOCCOCCOCCOCCO [P9] | 91.67 | 83.33 | – | – | – | – | – |
| CCCCCCCCCCCCOCCOCCOCCOCCOCCOCCOCCOCCOCCOCCO [P10] | – | – | 20 | 8 | 20 | formed homogeneous foam | – |
| CCCCCCCCCCCCOCCOCCOCCOCCOCCOCCOCCOCCO [P8] | – | – | 13 | 3 | – | formed homogeneous foam | 13 |
